Measurements: patent US20190203253A1, “METHODS OF IDENTIFYING AND TREATING CANCER PATIENTS WITH AN EPHB6 DEFICIENCY” (University of Saskatchewan, priority 2016, published 2019)

What was measured:
[1] = system: co-cultured MDA-pc3 and MDA-B6 cells; assay: Co-cultured colour-coded cells with MET inhibitor (flow cytometry); format: cell-based, human; conditions: 0.3 μM, 24, 32 and 48 hours, 1:1 co-culture (FIG. 11)
Method: FIG. 11. MET inhibition preferentially suppresses EPHB6-deficient cells. Hygro-selected combinations of MDA-B6-GFP and MDA-pc3-RFP (A and B) or MDA-B6-RFP and MDA-pc3-GFP (C and D) cells were seeded in 1:1 ratio and treated with 0.3 μM concentration of Met receptor inhibitor, ARQ197, or with a matching volume of DMSO, as a solvent control for 24, 32, and 48 hours. Treated cells were analyzed by flow cytometry. Bar graphs are based on the analyses of triplicates and represent a suppression of ARQ197-treated cell populations as a percentage relative to matching DMSO controls. (*) Statistical analyses: Student's t test, P<0.05 for indicated points. All analyses represent one of at least three independent experiments. The skilled person in the art will understand that the drawings, described herein, are for illustration purposes only. The drawings are not intended to limit the scope of the applicants' teachings in any way.
(§1) As mentioned above, a number of potential candidates that predominantly function in signal transduction (FIG. 2G), including DDR2, SRC, ROCK2 and MET (Table 1), were identified. Further testing with a MET inhibitor, ARQ197, was conducted to evaluate its SL properties. MDA-B6 and MDA-pc3 cells, as well as BT20-NS and BT20-shB6 cells, obtained using a method similar as described above in Example 1, were treated with increasing concentrations of ARQ197.

[2] = system: MDA-B6 and MDA-pc3 cells; assay: Cell survival (resazurin) with MET inhibitor, MDA-MB-231-derived cells; format: cell-based, human; conditions: increasing concentrations, 24 hours, vs MDA-B6 (FIG. 10A)
Method: (§2) FIG. 10. Analysis of EPHB6-MET SL interaction. A and B, MDA-B6 and MDA-pc3 (A) or BT2O-NS and BT20-shB6 (B) cells were treated for 24 hours with the indicated concentrations of MET inhibitor, ARQ197, or with matching concentrations of DMSO, as a control. Treated cells were stained with Resazurin for 2 h at 37° C. and cell survival was measured using a microplate reader. Data represent the analysis of triplicates and are shown as a percentage relative to matching DMSO controls. (*) Statistical analyses: Student's t test, P<0.05 for indicated points. All analyses represent one of at least three independent experiments.
as §1

[3] = system: BT20-NS and BT20-shB6 cells; assay: Cell survival (resazurin) with MET inhibitor, BT-20-derived cells; format: cell-based, human; conditions: increasing concentrations, 24 hours, vs BT20-NS (FIG. 10B)
Method: as §2, §1

[4] = system: MDA-pc3 and MDA-B6 cells (MDA-MB-231); assay: Drug sensitivity assay (resazurin), SRC inhibitors, MDA-MB-231-derived cells; format: cell-based, human; conditions: MDA-pc3 vs MDA-B6, increasing concentrations, 72 h, resazurin (FIG. 4A, 4B)
Method: FIG. 4. […] C. […] All experiments were performed at least three times.

[5] = target: SRC (Homo sapiens, UniProt P12931); assay: SRC inhibition in cells (anti-SRC immunoprecipitation, anti-phospho-SRC Western blot); format: cell-based; conditions: MDA-B6 cells, 20 μM, 40 minutes, 10% FBS (FIG. 9B)
Sequence of SRC (P12931 whole entry): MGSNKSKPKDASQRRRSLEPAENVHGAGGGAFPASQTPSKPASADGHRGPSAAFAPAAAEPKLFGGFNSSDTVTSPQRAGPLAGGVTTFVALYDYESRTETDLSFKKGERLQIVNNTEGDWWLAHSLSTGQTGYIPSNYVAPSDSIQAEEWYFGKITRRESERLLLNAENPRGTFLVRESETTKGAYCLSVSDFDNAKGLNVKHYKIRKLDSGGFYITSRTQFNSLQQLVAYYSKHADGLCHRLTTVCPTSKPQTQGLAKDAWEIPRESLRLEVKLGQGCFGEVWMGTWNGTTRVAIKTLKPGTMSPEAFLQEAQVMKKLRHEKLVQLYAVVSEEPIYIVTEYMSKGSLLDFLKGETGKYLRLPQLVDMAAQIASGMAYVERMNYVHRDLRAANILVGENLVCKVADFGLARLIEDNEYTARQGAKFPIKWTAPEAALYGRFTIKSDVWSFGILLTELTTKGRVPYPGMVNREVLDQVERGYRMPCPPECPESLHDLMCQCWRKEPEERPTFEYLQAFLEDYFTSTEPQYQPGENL

[6] = system: BT-20 cells (EPHB6-targeting shRNA vs non-silencing shRNA); assay: Drug sensitivity assay (resazurin), SRC inhibitors, BT-20 cells with silenced EPHB6; format: cell-based, human; conditions: BT-20 with EPHB6-targeting shRNA vs non-silencing shRNA, 96 h (FIGS. 6A-6E)
Method: FIG. 6. SL relation between EPHB6 and SRC in BT-20 TNBC cells. A. Triple negative breast cancer cells, BT-20, were transduced with EPHB6-targeting shRNA (BT20-66-shRNA), or non-silencing shRNA (BT2O-NS). EPHB6 expression was analyzed by Western blotting with anti-EPHB6. Western blotting with anti-tubulin was used as a loading control. B. BT20-66-shRNA and BT2O-NS cells were cultured in 96-well plates with indicated concentrations of SU6656 or matching volumes of DMSO for 96 h. Cells were stained with resazurin and fluorescence was measured using a SpectraMax M5 plate reader to determine cell suppression. Five wells were analyzed per condition. […] C. […] Cells were stained with resazurin and fluorescence was measured using a SpectraMax M5 plate reader to determine cell suppression. Five wells were analyzed per condition. […] PI-stained cells were counted in at least 10 randomly captured frames. […] Stained cells were analyzed by flow cytometry and the FlowJo software. […]
MDA-MB-231 and BT-20 cell monolayers were incubated in 96-well plates for 72 h and 96 h, respectively, with indicated concentrations of KX2-391 or SU6656, or matching volumes of DMSO as a solvent control. Treated cells were stained using resazurin by following the manufacturer's instructions and fluorescence was measured using a SpectraMax M5 microplate reader.

SMILES: O=C1NC(=O)[C@@H](c2cn3c4c(cccc24)CCC3)[C@@H]1c1c[nH]c2ccccc12 [ARQ197]
- suppression of cell populations in co-culture [1]: preferentially suppressed EPPBH6-deficient MDA-B6 cells
- cell survival of EPHB6-deficient MDA-pc3 cells [2]: decreased cell survival compared to MDA-B6 cells
- cell survival of BT20-shB6 cells [3]: decreased cell survival compared to BT-20 cells transduced with non-silencing shRNA

SMILES: CN(C)S(=O)(=O)c1ccc2c(c1)/C(=C/c1cc3c([nH]1)CCCC3)C(=O)N2 [SU6656]
- cell suppression relative to DMSO control, EPHB6-deficient vs EPHB6-expressing cells [4]: preferentially suppressed EPHB6-deficient MDA-pc3 cells
- SRC inhibition (phospho-SRC) [5]: efficiently inhibited
- cell suppression after silencing of EPHB6 expression [6]: strongly increased their suppression
